Experimental data taken from US11439624B2, “Promoting sleep using AT1 receptor blockers” (UNIVERSITY OF PITTSBURGH—OF THE COMMONWEALTH SYSTEM OF …, priority 2012, dated 2022).

Assays:
[1] = system: rats in the stress-induced insomnia model; test: stress-induced insomnia model in rats (cage exchange; EEG and EMG recording); assay type: in vivo, rat; conditions: for average of REM sleep / average of nREM sleep / average of wakefulness along the entire experiment: aprox. 6 hours after cage exchange and drug injection; for average of REM sleep: vehicle 2%; for average of nREM sleep: vehicle 45%; for average of wakefulness along the entire experiment: vehicle 52%; for REM sleep (range depending on the hour): vehicle 0-4%; for sleep latency: stressed (cage exchanged) rats, i.p. just prior to transfer to soiled cage, candesartan 1 or 5 mg/kg, azilsartan 0.5 mg/kg, vehicle 68±10 minutes; for abnormal wave components in the EEG (power spectrum analysis): treated rats in the insomnia model
Description: Rats in the stress-induced insomnia model (25) were treated with candesartan intraperitoneally (i.p.; 1 mg/kg or 5 mg/kg). In the model, insomnia is induced by transferring male rats at the peak of their normal sleep cycle into a soiled cage previously occupied during one week by another male rat. This simple procedure induces a psychological or social stress response in the rats, which are very territorial animals. The sequence of sleep disturbances in cage exchanged rats is similar to that observed in humans with primary insomnia. In rats, there is an initial delay in sleep onset and increased wakefulness that resemble the difficulties falling asleep at the beginning of the night, or initial insomnia, observed in humans after a stressful day. Eventually, insomniacs fall asleep because of the sleep pressure, as rats do. But later, as the night progresses, they usually experience insomnia characterized by decreased nREM sleep, frequent awakenings, and poor quality sleep, similar to what we observed in the stressed rats. Candesartan was injected i.p. just prior to transferring the rats (n=7 for the 1 mg/kg treatment and n=4 for the 5 mg/kg treatment) to the soiled cage. EEG and EMG activity were recorded continuously to determine the behavioral state (wake, nREM or REM sleep) along several hours. Control rats (n=6) were injected with vehicle and also placed in a soiled cage and recorded. […] REM sleep is increased to 6-12% (depending on the hour) compared with vehicle treated rats (0-4%). In an additional study, Azilsartan was tested using the same stress-induced insomnia model in rats as was used in Example 1. Azilsartan, which mainly acts as an inverse agonist of AT1 receptors, has been reported to have a potent effect in the treatment of hypertension at a single daily dose compared to twice-a-day doses commonly used for other AT1 receptor blockers. For this reason, we used a lower dose of azilsartan (0.5 mg/kg) than the dose used for candesartan. Azilsartan was injected i.p. just prior to transferring the rats (n=4) to the soiled cage. EEG and EMG activity were recorded continuously to determine the behavioral state (wake, nREM or REM sleep) along several hours, as explained above.

[2] = system: humans treated for hypertension; conditions: cited from earlier work
[3] = candesartan 1 or 5 mg/kg i.p., azilsartan 0.5 mg/kg i.p.

Structure (SMILES) | more sleep in the last two hours of the experiment compared to candesartan-treated rats ([1]; 4 hours after injection of the drug, azilsartan 0.5 mg/kg i.p.) | average of REM sleep [1] | average of nREM sleep [1] | average of wakefulness along the entire experiment [1] | percentage of nREM sleep (range depending on the hour) ([1]; azilsartan 0.5 mg/kg i.p.) | REM sleep (range depending on the hour) [1, 3] | sleep latency [1] | abnormal wave components in the EEG (power spectrum analysis) [1] | effect on sleep disturbances induced by stress ([1]; validated rat model of stress-induced insomnia) | duration of effect compared with other AT1 receptor blockers [2] | nREM sleep increase compared with vehicle treated rats (depending on the hour) ([1]; candesartan 1 or 5 mg/kg i.p.)
CCOc1nc2cccc(C(=O)O)c2n1Cc1ccc(-c2ccccc2-c2noc(=O)[nH]2)cc1 [azilsartan] | 20% | 10% | 68% | 22% | 50-82% | 3-15% | 60 ± 3 min | does not seem to induce abnormal wave components in the EEG | ameliorate sleep disturbances induced by stress | longer-lasting effect than other AT1 receptor blockers | 
CCOc1nc2cccc(C(=O)O)c2n1Cc1ccc(-c2ccccc2-c2nnn[nH]2)cc1 [candesartan] |  | 7.5% | 57% | 35% |  | 6-12% | 38 ± 3 min | does not induce abnormal wave components in the EEG |  |  | 20-40%
